Results from article PMC12692861, “Biotin-Linked Ursolic Acid Conjugates as Selective Anticancer Agents and Target-Identification Tools for Cancer Therapy” (Molecules, 2025).

Legend:
MB49 [1] = test: Cell cycle phase fractionation by flow cytometry (PI); type: cell-based, murine; settings: MB49, 24 h, mean ± SD n=3
Text: Cells treated with some antiproliferative drugs are blocked from orderly progression from one stage of their mitotic cycle to the next due to inhibition of a specific stage of the cell cycle. Analysis by flow cytometry (FC) of DNA content in the nuclei of drug-treated cells is a well-established technique for evaluating the fractions of cells in each stage of the cell cycle based on their DNA content. In this study, we employed FC to examine whether treatment with UA or 5c affects the orderly cell cycle progression from G0/G1, S, and G2M before entering Mitosis (M). Figure 6 represents the effect of UA and 5c on cell cycle progression in four bladder cancer cell lines, 5637, HT-1376, T-24, and MB-49, after a […] treatment at a concentration of 12 µM. Following the treatment, nuclei suspensions from treated cells were prepared by direct cell lysis in a hypotonic solution, with simultaneous staining with PI (100 µg/mL). The resulting nuclei suspension and the samples were run on the flow cytometer and analyzed for DNA content.
Cells cultured in 35 mm diameter, 6-well cluster plates (Corning Inc., Corning, NY, USA) overnight at a density of 0.3 × 10^6 cells/well, and treated with various compounds at selected concentrations for 24 h. After completion of treatment, cells were washed twice with PBS, followed by the addition of Propidium Iodide (PI) containing […] solution [(0.1 mg/mL PI), 50mg Na-citrate, 15 µL of IGEPAL CA-630], 1 mL in each well, and incubated for 30–45 min at 37 °C and 5% CO2. After that data acquired using the NovoCyte Quanteon Flow Cytometer was analyzed using NovoExpress software (version 1.6.1).

T24 cells = test: ROS estimation with H2DCFDA; type: cell-based, human; settings: T24, 24 h, all tested concentrations (5–40 µM)
Method: (§1) Since 5c was not toxic to non-tumorigenic cells, such as MCF12A and UROtsa, these cells were excluded from experiments aimed at identifying the broad mechanism of cytotoxicity. A common mechanism by which these antioxidants induce cytotoxicity in tumor cells is by generating Reactive Oxygen Species (ROS) selectively in fast-growing tumor cells. The levels of ROS generated by 5c exposed cells were evaluated with the oxidation of 2′,7′-dichlorodihydrofluorescein diacetate (H2DCFDA). It is a cell-permeant fluorescent probe used for detecting ROS production (Thermo Scientific Inc., Waltham, MA, USA). […] Figure 3 illustrates the quantification of intracellular ROS levels in four bladder cancer cell lines, 5637, T24, HT-1376, and MB49, following treatment with UA and its biotin-conjugated derivative, compound 5c.
(§2) The relative levels of intracellular ROS produced in untreated and drug-treated cells were analyzed by fluorimetry using the fluorescent probe H2DCFDA (Sigma-Aldrich, #D6883, St. Louis, MI, USA), as described previously. Briefly, cells cultured in a 96-well plate at 1 × 10^4 cells per well were treated with drugs of interest for 24 h rinsed with sterile PBS to remove excess drugs, and incubated with 10 μM DCFDA for 30 min at 37 °C and 5% CO2. Following three rinses with PBS, the fluorescence intensity was recorded at excitation: 485/20, emission: 528/20 using a BioTek Synergy HTX Multimode fluorescence plate reader (Agilent Technologies, Inc., Santa Clara, CA, USA), and the data were represented as percentage change compared to the respective untreated control.
(§3) Figure 3 Estimation of oxidative stress: Treatment with UA or 5c increased ROS levels in various bladder cancer cells. ROS levels were estimated at 24 h using DCFDA. The relative fluorescence unit (RFU) was normalized to that observed in untreated cells and expressed as a percent increase. Data are Means ± SD, (n = 4). Relative significance, expressed as p-value are calculated based on one-way ANOVA.

MB49 [2] = test: MTT antiproliferative assay; type: cell-based, murine; settings: for SI (selectivity index), MB49: IC50 UROtsa / IC50 MB49; for IC50: Mus musculus, MB49, MTT, 72 h, read-out: IC50 ± SD, MB49
Method: The IC50 values indicate that 5c is effective across multiple bladder cancer cell lines (Figure 2 and Table 2).
(§4) The antiproliferative activities of various compounds examined in this report were measured using the MTT (3-[4,5-dimethylthiazol-2-yl]-2,5-diphenyl-tetrazolium bromide) reduction assay, as previously described. Briefly, cells were seeded at 2 × 10^3 cells per well in a 96-well plate and cultured overnight. The cells were then treated with different doses (5 µM, 10 µM, 15 µM, 20 µM, 25 µM, 30 µM, 35 µM, 40 µM in DMSO) for 72 h. Viability of the treated cultures was estimated by conversion of MTT to the insoluble formazan after 3h incubation at 37 °C and 5% CO2. The purple-colored formazan crystals were dissolved in DMSO, and absorbance was recorded at wavelengths 570/640 nm using the Bio-Rad Benchmark Plus Microplate Reader. The percent of viable cells was calculated ODtreated cells/ODcontrol cell wells × 100.

MB49 cells = test: ROS estimation with H2DCFDA; type: cell-based, murine; settings: MB49, 24 h; for ROS levels: 5–40 µM
Method: as §1, §2, §3

UROtsa = test: MTT assay, non-tumorigenic immortalized urothelial cell line; type: cell-based, human; settings: for IC50: Homo sapiens, MTT, 72 h, non-tumorigenic cells, read-out: IC50 ± SD, UROtsa
Method: The synthesized hybrid conjugates 5a–d were evaluated for their antiproliferative activity against the established human bladder cancer cell lines T24 and 5637. Test compounds were dissolved in ultrapure dimethyl sulfoxide (DMSO), diluted in cell culture media, added to cells cultured in 96-well cluster wells, and incubated for 72 h. The concentration of DMSO in culture media was maintained at < 0.05%. As previously reported, the fraction of viable cells in the culture wells was compared to that in cultures with 0.05% DMSO-only using a colorimetric assay, the Methyl Tetrazolium Bromide (MTT) reduction assay. We determined the selectivity index (SI) of the compounds 5a–d against tumor cells by comparing their cytotoxicity to that of a non-tumorigenic breast epithelial cell line, MCF-12A, as well as a non-tumorigenic, immortalized urothelial cell line, UROtsa (Table 1, and Figure 2).
as §4

| Structure (SMILES) | Cell-Cycle Phase-Fractions G1 (MB49 [1]) | Cell-Cycle Phase-Fractions G2/M (MB49 [1]) | Cell-Cycle Phase-Fractions S (MB49 [1]) | ROS levels (T24 cells) | SI (selectivity index), MB49 (MB49 [2]) | IC50 (MB49 [2]) | ROS levels (MB49 cells) | ROS response relative to UA (MB49 cells; 30–40 µM) | IC50 (UROtsa) | toxicity to non-tumorigenic cells (UROtsa; UROtsa) |
| --- | --- | --- | --- | --- | --- | --- | --- | --- | --- | --- |
| CC1CCC2(C(=O)OCCCCOC(=O)CCCCC3SCC4NC(=O)NC43)CCC3(C)C(=CCC4C5(C)CCC(O)C(C)(C)C5CCC43C)C2C1C [Compound 5c, 4-((5-((3aS,4S,6aR)-2-Oxohexahydro-1H-thieno [3,4-d]imidazol-4-yl)pentanoyl)oxy) butyl 3-hydroxy-urs-12-en-28-oate] | 53.52 ± 1.25 % of total | 18.43 ± 0.69 % of total | 28.05 ± 0.56 % of total | comparable increases in ROS levels | 4.63 | 13.6 ± 0.18 µM | concentration-dependent increase in ROS levels | more robust ROS response | 62.9 ± 3.84 µM | not toxic |
| C[C@H]1[C@H](C)CC[C@]2(C(=O)O)CC[C@]3(C)C(=CC[C@@H]4[C@@]5(C)CC[C@H](O)C(C)(C)[C@@H]5CC[C@]43C)[C@H]12 [UA, Ursolic acid] | 59.75 ± 0.77 % of total | 19.12 ± 1.09 % of total | 21.13 ± 1.49 % of total | comparable increases in ROS levels | 6.26 | 10.7 ± 0.36 µM | concentration-dependent increase in ROS levels | – | 67 ± 7.15 µM | – |
